The source made the active and inactive calls. How the calls were made is not given here.
target: T1, Aurora kinase A (Homo sapiens) (UniProt O14965); assay: Binding affinity to GST-tagged Aurora A after 1 hr by ELISA
T1 sequence (whole entry): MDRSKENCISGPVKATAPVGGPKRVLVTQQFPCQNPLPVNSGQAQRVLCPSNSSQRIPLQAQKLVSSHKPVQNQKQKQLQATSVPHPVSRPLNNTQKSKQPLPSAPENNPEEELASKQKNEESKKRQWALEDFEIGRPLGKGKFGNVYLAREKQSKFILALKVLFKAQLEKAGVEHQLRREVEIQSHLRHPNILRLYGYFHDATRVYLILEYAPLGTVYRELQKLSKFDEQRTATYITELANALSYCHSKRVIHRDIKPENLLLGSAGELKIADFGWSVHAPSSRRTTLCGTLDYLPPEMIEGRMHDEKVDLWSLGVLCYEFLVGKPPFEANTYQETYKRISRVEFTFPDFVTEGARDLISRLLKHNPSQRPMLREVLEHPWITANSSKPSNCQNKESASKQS

Activity, active:
H-AELAALEAELAALEGLVMGVKAFLGKLAALKAKLAALKA-OH
H-AELAALEAELAAPEGSQERKGVLAGKLAALKAKLAALKA-OH
H-AELAALEAELAALEGLQQVLSYIFGKLAALKAKLAALKA-OH
H-AELAALEAELAALEGQVGSTRLLSGKLAALKAKLAALKA-OH
H-AELAALEAELAALEGWLIELLWIVGKLAALKAKLAALKA-OH
H-AELAALEAELAALEGSGAWMGSLLGKLAALKAKLAALKA-OH
H-AELAALEAELAALEGKGTQMWWLLGKLAALKAKLAALKA-OH
H-AELAALEAELAALEGWRRRLNNWWGKLAALKAKLAALKA-OH
H-AELAALEAELAALEGSVAQLGLLLGKLAALKAKLAALKA-OH
H-AELAALEAELAALEGFPGRFGLFVGKLAALKAKLAALKA-OH
CC[C@H](C)[C@H](NC(=O)[C@H](CCCNC(=N)N)NC(=O)CNC(=O)[C@H](CC(C)C)NC(=O)[C@H](CC(C)C)NC(=O)[C@@H]1CCCN1C(=O)[C@H](CO)NC(=O)[C@H](Cc1c[nH]c2ccccc12)NC(=O)CNC(=O)[C@H](CCC(=O)O)NC(=O)[C@H](CC(C)C)NC(=O)[C@H](C)NC(=O)[C@H](C)NC(=O)[C@H](CC(C)C)NC(=O)[C@H](CCC(=O)O)NC(=O)[C@H](C)NC(=O)[C@H](CCC(=O)O)NC(=O)[C@H](CC(C)C)NC(=O)[C@H](C)NC(=O)[C@H](C)NC(=O)[C@H](CC(C)C)NC(=O)[C@H](CCC(=O)O)NC(=O)[C@@H](C)N)C(=O)N[C@@H](CC(C)C)C(=O)NCC(=O)N[C@@H](CCCCN)C(=O)N[C@@H](CC(C)C)C(=O)N[C@@H](C)C(=O)N[C@@H](C)C(=O)N[C@@H](CC(C)C)C(=O)N[C@@H](CCCCN)C(=O)N[C@@H](C)C(=O)N[C@@H](CCCCN)C(=O)N[C@@H](CC(C)C)C(=O)N[C@@H](C)C(=O)N[C@@H](C)C(=O)N[C@@H](CC(C)C)C(=O)N[C@@H](CCCCN)C(=O)N[C@@H](C)C(=O)O
H-AELAALEAELAALEGSQDNARSLWGKLAALKAKLAALKA-OH
CC[C@H](C)[C@H](NC(=O)[C@H](CCCNC(=N)N)NC(=O)[C@H](CCCNC(=N)N)NC(=O)[C@H](CO)NC(=O)[C@H](C)NC(=O)CNC(=O)[C@H](CCC(=O)O)NC(=O)[C@H](CC(C)C)NC(=O)[C@H](C)NC(=O)[C@H](C)NC(=O)[C@H](CC(C)C)NC(=O)[C@H](CCC(=O)O)NC(=O)[C@H](C)NC(=O)[C@H](CCC(=O)O)NC(=O)[C@@H]1CCCN1C(=O)[C@H](C)NC(=O)[C@H](C)NC(=O)[C@H](CC(C)C)NC(=O)[C@H](CCC(=O)O)NC(=O)[C@@H](C)N)C(=O)N[C@@H](CS)C(=O)N[C@@H](CS)C(=O)N[C@@H](CO)C(=O)N[C@@H](Cc1c[nH]c2ccccc12)C(=O)NCC(=O)N[C@@H](CCCCN)C(=O)N[C@@H](CC(C)C)C(=O)N[C@@H](C)C(=O)N[C@@H](C)C(=O)N[C@@H](CC(C)C)C(=O)N[C@@H](CCCCN)C(=O)N[C@@H](C)C(=O)N[C@@H](CCCCN)C(=O)N[C@@H](CC(C)C)C(=O)N[C@@H](C)C(=O)N[C@@H](C)C(=O)N[C@@H](CC(C)C)C(=O)N[C@@H](CCCCN)C(=O)N[C@@H](C)C(=O)O
CC(C)C[C@H](NC(=O)[C@H](C)NC(=O)[C@H](C)NC(=O)[C@H](CC(C)C)NC(=O)[C@H](CCC(=O)O)NC(=O)[C@H](C)NC(=O)[C@H](CCC(=O)O)NC(=O)[C@H](CC(C)C)NC(=O)[C@H](C)NC(=O)[C@H](C)NC(=O)[C@H](CC(C)C)NC(=O)[C@H](CCC(=O)O)NC(=O)[C@@H](C)N)C(=O)N[C@@H](CCC(=O)O)C(=O)NCC(=O)N[C@@H](CCCNC(=N)N)C(=O)N1CCC[C@H]1C(=O)N[C@@H](Cc1ccccc1)C(=O)N[C@@H](Cc1c[nH]c2ccccc12)C(=O)N[C@@H](CC(C)C)C(=O)N[C@@H](CC(=O)O)C(=O)N[C@@H](CCCNC(=N)N)C(=O)N[C@@H](CC(C)C)C(=O)N[C@@H](CC(C)C)C(=O)NCC(=O)N[C@@H](CCCCN)C(=O)N[C@@H](CC(C)C)C(=O)N[C@@H](C)C(=O)N[C@@H](C)C(=O)N[C@@H](CC(C)C)C(=O)N[C@@H](CCCCN)C(=O)N[C@@H](C)C(=O)N[C@@H](CCCCN)C(=O)N[C@@H](CC(C)C)C(=O)N[C@@H](C)C(=O)N[C@@H](C)C(=O)N[C@@H](CC(C)C)C(=O)N[C@@H](CCCCN)C(=O)N[C@@H](C)C(=O)O
H-AELAALEAELAALEGGTKMWSLLVDGKLAALKAKLAALKA-OH
CSCC[C@H](NC(=O)[C@@H]1CCCN1C(=O)[C@H](CCC(N)=O)NC(=O)[C@H](CO)NC(=O)CNC(=O)[C@H](Cc1c[nH]c2ccccc12)NC(=O)CNC(=O)[C@H](CCC(=O)O)NC(=O)[C@H](CC(C)C)NC(=O)[C@H](C)NC(=O)[C@H](C)NC(=O)[C@H](CC(C)C)NC(=O)[C@H](CCC(=O)O)NC(=O)[C@H](C)NC(=O)[C@H](CCC(=O)O)NC(=O)[C@H](CC(C)C)NC(=O)[C@H](C)NC(=O)[C@H](C)NC(=O)[C@H](CC(C)C)NC(=O)[C@H](CCC(=O)O)NC(=O)[C@@H](C)N)C(=O)N[C@@H](CC(=O)O)C(=O)N[C@@H](CO)C(=O)N[C@H](C(=O)NCC(=O)N[C@@H](CCCCN)C(=O)N[C@@H](CC(C)C)C(=O)N[C@@H](C)C(=O)N[C@@H](C)C(=O)N[C@@H](CC(C)C)C(=O)N[C@@H](CCCCN)C(=O)N[C@@H](C)C(=O)N[C@@H](CCCCN)C(=O)N[C@@H](CC(C)C)C(=O)N[C@@H](C)C(=O)N[C@@H](C)C(=O)N[C@@H](CC(C)C)C(=O)N[C@@H](CCCCN)C(=O)N[C@@H](C)C(=O)O)C(C)C
H-AELAALEAELAPLEGYVSAGSQLWDGKLAALKAKLAALKA-OH
H-AELAALEAELAALEGWVGMREVWRGKLAALKAKLAALKA-OH
H-AELAALEAELAALEGRSEDPVCSWGKLAALKAKLAALKA-OH
H-AELAALEAELAALEGYEGQFMWLIGKLAALKAKLAALKA-OH
CC(C)C[C@H](NC(=O)[C@H](C)NC(=O)[C@H](C)NC(=O)[C@H](CC(C)C)NC(=O)[C@H](CCC(=O)O)NC(=O)[C@H](C)NC(=O)[C@H](CCC(=O)O)NC(=O)[C@H](CC(C)C)NC(=O)[C@H](C)NC(=O)[C@H](C)NC(=O)[C@H](CC(C)C)NC(=O)[C@H](CCC(=O)O)NC(=O)[C@@H](C)N)C(=O)N[C@@H](CCC(=O)O)C(=O)NCC(=O)N[C@H](C(=O)N[C@@H](CC(C)C)C(=O)N[C@H](C(=O)N[C@H](C(=O)N[C@@H](CO)C(=O)N[C@@H](Cc1c[nH]c2ccccc12)C(=O)N[C@@H](CC(=O)O)C(=O)N1CCC[C@H]1C(=O)N[C@@H](Cc1c[nH]c2ccccc12)C(=O)NCC(=O)N[C@@H](CCCCN)C(=O)N[C@@H](CC(C)C)C(=O)N[C@@H](C)C(=O)N[C@@H](C)C(=O)N[C@@H](CC(C)C)C(=O)N[C@@H](CCCCN)C(=O)N[C@@H](C)C(=O)N[C@@H](CCCCN)C(=O)N[C@@H](CC(C)C)C(=O)N[C@@H](C)C(=O)N[C@@H](C)C(=O)N[C@@H](CC(C)C)C(=O)N[C@@H](CCCCN)C(=O)N[C@@H](C)C(=O)O)C(C)C)C(C)C)[C@H](C)O
H-AELAALEAELAALEGARSLVAQMTGKLAALKAKLAALKA-OH
H-AELAALEAELAALEGQLWMLNTILGKLAALKAKLAALKA-OH
H-AELAALEAELAALEGNISRFWVLAGKLAALKAKLAALKA-OH
H-AELAALEAELAALEGWGGLMGWISGKLAALKAKLAALKA-OH
H-AELAALEAELAALEGKVYMFWTIMGKLAALKAKLAALKA-OH
H-AELAALEAELAALEGDVAVAVRWDGKLAALKAKLAALKA-OH
H-AELAALEAELAALEGRRAVWPFGFGKLAALKAKLAALKA-OH
H-AELAALEAELAALEGRDQVMWFLHGKLAALKAKLAALKA-OH
H-AELAALEAELAALEGMRDWLIIGFGKLAALKAKLAALKA-OH
H-AELAALEAELAALEGGYERRGWGVTGKLAALKAKLAALKA-OH
H-AELAALEAELAALEGGLSEVHGLSGKLAALKAKLAALKA-OH
H-AELAALEAELAALEGLEGKSMGFIGKLAALKAKLAALKA-OH
CSCC[C@H](NC(=O)[C@@H]1CCCN1C(=O)[C@H](CCC(N)=O)NC(=O)[C@@H]1CCCN1C(=O)CNC(=O)[C@H](CCC(=O)O)NC(=O)[C@H](CC(C)C)NC(=O)[C@H](C)NC(=O)[C@H](C)NC(=O)[C@H](CC(C)C)NC(=O)[C@H](CCC(=O)O)NC(=O)[C@H](C)NC(=O)[C@H](CCC(=O)O)NC(=O)[C@H](CC(C)C)NC(=O)[C@H](C)NC(=O)[C@H](C)NC(=O)[C@H](CC(C)C)NC(=O)[C@H](CCC(=O)O)NC(=O)[C@@H](C)N)C(=O)N[C@@H](Cc1c[nH]c2ccccc12)C(=O)NCC(=O)N[C@@H](CO)C(=O)N[C@@H](Cc1c[nH]c2ccccc12)C(=O)N[C@@H](CCCNC(=N)N)C(=O)NCC(=O)N[C@@H](CCCCN)C(=O)N[C@@H](CC(C)C)C(=O)N[C@@H](C)C(=O)N[C@@H](C)C(=O)N[C@@H](CC(C)C)C(=O)N[C@@H](CCCCN)C(=O)N[C@@H](C)C(=O)N[C@@H](CCCCN)C(=O)N[C@@H](CC(C)C)C(=O)N[C@@H](C)C(=O)N[C@@H](C)C(=O)N[C@@H](CC(C)C)C(=O)N[C@@H](CCCCN)C(=O)N[C@@H](C)C(=O)O

— ChEMBL document CHEMBL1154915, “Selection of inhibitory peptides for Aurora-A kinase from a phage-displayed library of helix-loop-helix peptides” (Bioorg Med Chem Lett, 2010)
